Laboratory results: patent publication US10556888B2, “Pyrazole compounds or salts thereof, preparation methods therefor, herbicidal compositions and use thereof” (QINGDAO KINGAGROOT CHEMICAL COMPOUNDS CO., LTD, priority 2015, dated 2020)

How the values were obtained:
[1] = system: Monocotyledonous and dicotyledonous weed; assay: Post-emergence test experiment, weed control effect (Table 2); type: in vivo; parameters: key to weed control effect, Setaria viridis (level) / weed control effect, Rorippa indica (level) / weed control effect, Abutilon theophrasti (level) / weed control effect, Echinochloa crus-galli (level) / weed control effect, Digitaria sanguinalis (level): Level 10: completely dead; Level 9: above 90% growth inhibition rate; Level 8: above 80% growth inhibition rate; Level 7: above 70% growth inhibition rate; Level 6: above 60% growth inhibition rate; Level 5: above 50% growth inhibition rate; Level 4: above 30% growth inhibition rate; Level 3: above 20% growth inhibition rate; Level 2: above 10% growth inhibition rate; Level 1: above 1-10% growth inhibition rate; Level 0: no effect; details: 3 weeks after spraying, greenhouse
Method: (§1) Post-emergence test experiment: Monocotyledonous and dicotyledonous weed seeds and main crop seeds (i.e. wheat, corn, rice, soybean, cotton, oilseed, millet and sorghum.) were put into a plastic pot loaded with soil. Then covered with 0.5-2 cm soil, the seeds were allowed to grow in good greenhouse environment. The test plants were treated at 2-3 leaf stage 2-3 weeks after sowing. The test compounds of the invention were dissolved with acetone respectively, then added with 80 tween and diluted by certain amount of water to certain concentration. The solution was sprayed to the plants with a sprayer. Then the plants were cultured for 3 weeks in the greenhouse.

[2] = system: main crop (wheat, corn, rice, soybean, cotton, oilseed, millet and sorghum); assay: Post-emergence test experiment, main crops (Table 2); type: in vivo; parameters: key: Level 10: completely dead; Level 9: above 90% growth inhibition rate; Level 8: above 80% growth inhibition rate; Level 7: above 70% growth inhibition rate; Level 6: above 60% growth inhibition rate; Level 5: above 50% growth inhibition rate; Level 4: above 30% growth inhibition rate; Level 3: above 20% growth inhibition rate; Level 2: above 10% growth inhibition rate; Level 1: above 1-10% growth inhibition rate; Level 0: no effect; details: 3 weeks after spraying, greenhouse
Method: as §1

Row | Compound | weed control effect, Abutilon theophrasti (level) ([1]; 120 g/ha) | weed control effect, Bidens pilosa (level) ([1]; 120 g/ha) | weed control effect, Digitaria sanguinalis (level) ([1]; 120 g/ha) | weed control effect, Echinochloa crus-galli (level) ([1]; 120 g/ha) | weed control effect, Rorippa indica (level) ([1]; 120 g/ha) | weed control effect, Setaria viridis (level) ([1]; 120 g/ha) | effect on crop, corn (level) ([2]; 120 g/ha) | effect on crop, rice (level) ([2]; 120 g/ha) | effect on crop, wheat (level) ([2]; 120 g/ha) | further results
1 | Cc1ccn(Cc2c(S(C)(=O)=O)ccc(C(=O)c3c(C)nn(C)c3OC(=O)c3cnn(C)c3)c2Cl)n1 [Compound 15] | 9 (Level 9: above 90% growth inhibition rate) | 8 (Level 8: above 80% growth inhibition rate) | 4 (Level 4: above 30% growth inhibition rate) | 10 | 10 | 5 (Level 5: above 50% growth inhibition rate) | 0 | 1 (Level 1: above 1-10% growth inhibition rate) | 0 | 
2 | Cc1nn(C)c(OC(=O)c2cnn(C)c2)c1C(=O)c1ccc(S(C)(=O)=O)c(Cn2cccn2)c1Cl [Compound 16] |  |  |  |  |  |  |  |  |  | weed control effect, Abutilon theophrasti (level) ([1]; 60 g/ha): 10; weed control effect, Bidens pilosa (level) ([1]; 60 g/ha): 8 (Level 8: above 80% growth inhibition rate); weed control effect, Digitaria sanguinalis (level) ([1]; 60 g/ha): 10; weed control effect, Echinochloa crus-galli (level) ([1]; 60 g/ha): 10; weed control effect, Rorippa indica (level) ([1]; 60 g/ha): 10; weed control effect, Setaria viridis (level) ([1]; 60 g/ha): 8 (Level 8: above 80% growth inhibition rate); effect on crop, corn (level) ([2]; 60 g/ha): 0; effect on crop, rice (level) ([2]; 60 g/ha): 1 (Level 1: above 1-10% growth inhibition rate); effect on crop, wheat (level) ([2]; 60 g/ha): 1 (Level 1: above 1-10% growth inhibition rate)
3 | Cc1cnn(Cc2c(S(C)(=O)=O)ccc(C(=O)c3cnn(C)c3OC(=O)c3cnn(C)c3)c2Cl)c1 [Compound 17] | 6 (Level 6: above 60% growth inhibition rate) | 6 (Level 6: above 60% growth inhibition rate) | 0 | 10 | 4 (Level 4: above 30% growth inhibition rate) | 1 (Level 1: above 1-10% growth inhibition rate) | 0 | 0 | 0 | 
4 | Cn1cc(C(=O)Oc2c(C(=O)c3ccc(S(C)(=O)=O)c(Cn4cc(Cl)cn4)c3Cl)c(C3CC3)nn2C)cn1 [Compound 18] | 9 (Level 9: above 90% growth inhibition rate) | 8 (Level 8: above 80% growth inhibition rate) | 4 (Level 4: above 30% growth inhibition rate) | 10 | 10 | 5 (Level 5: above 50% growth inhibition rate) | 0 | 1 (Level 1: above 1-10% growth inhibition rate) | 0 | 
5 | Cn1cc(C(=O)Oc2c(C(=O)c3ccc(S(C)(=O)=O)c(Cn4cccn4)c3Cl)c(C3CC3)nn2C)cn1 [Compound 19] |  |  |  |  |  |  |  |  |  | weed control effect, Abutilon theophrasti (level) ([1]; 60 g/ha): 10; weed control effect, Bidens pilosa (level) ([1]; 60 g/ha): 8 (Level 8: above 80% growth inhibition rate); weed control effect, Digitaria sanguinalis (level) ([1]; 60 g/ha): 10; weed control effect, Echinochloa crus-galli (level) ([1]; 60 g/ha): 10; weed control effect, Rorippa indica (level) ([1]; 60 g/ha): 10; weed control effect, Setaria viridis (level) ([1]; 60 g/ha): 8 (Level 8: above 80% growth inhibition rate); effect on crop, corn (level) ([2]; 60 g/ha): 0; effect on crop, rice (level) ([2]; 60 g/ha): 1 (Level 1: above 1-10% growth inhibition rate); effect on crop, wheat (level) ([2]; 60 g/ha): 0
6 | Cc1cc(C)n(Cc2c(S(C)(=O)=O)ccc(C(=O)c3c(C4CC4)nn(C)c3OC(=O)c3cnn(C)c3)c2Cl)n1 [Compound 20] | 6 (Level 6: above 60% growth inhibition rate) | 6 (Level 6: above 60% growth inhibition rate) | 1 (Level 1: above 1-10% growth inhibition rate) | 10 | 4 (Level 4: above 30% growth inhibition rate) | 5 (Level 5: above 50% growth inhibition rate) | 0 | 0 | 0 | 
7 | Cc1ccn(Cc2c(S(C)(=O)=O)ccc(C(=O)c3c(C4CC4)nn(C)c3OC(=O)c3cnn(C)c3)c2Cl)n1 [Compound 21] | 6 (Level 6: above 60% growth inhibition rate) | 6 (Level 6: above 60% growth inhibition rate) | 1 (Level 1: above 1-10% growth inhibition rate) | 10 | 4 (Level 4: above 30% growth inhibition rate) | 3 (Level 3: above 20% growth inhibition rate) | 0 | 0 | 0 | 
8 | Cc1cnn(Cc2c(S(C)(=O)=O)ccc(C(=O)c3c(C4CC4)nn(C)c3OC(=O)c3cnn(C)c3)c2Cl)c1 [Compound 22] | 6 (Level 6: above 60% growth inhibition rate) | 6 (Level 6: above 60% growth inhibition rate) | 1 (Level 1: above 1-10% growth inhibition rate) | 10 | 4 (Level 4: above 30% growth inhibition rate) | 3 (Level 3: above 20% growth inhibition rate) | 0 | 0 | 0 | 
9 | CCOc1c(C(=O)Oc2c(C(=O)c3ccc(S(C)(=O)=O)c(Cn4cc(C)cn4)c3Cl)cnn2C)cnn1C [Compound 23] | 6 (Level 6: above 60% growth inhibition rate) | 6 (Level 6: above 60% growth inhibition rate) | 1 (Level 1: above 1-10% growth inhibition rate) | 10 | 4 (Level 4: above 30% growth inhibition rate) | 3 (Level 3: above 20% growth inhibition rate) | 0 | 0 | 0 | 
10 | Cc1nn(C)cc1C(=O)Oc1c(C(=O)c2ccc(S(C)(=O)=O)c(COCC(F)F)c2Cl)c(C)nn1C [Compound 25] |  |  |  |  |  |  |  |  |  | weed control effect, Abutilon theophrasti (level) ([1]; 30 g/ha): 7 (Level 7: above 70% growth inhibition rate); weed control effect, Bidens pilosa (level) ([1]; 30 g/ha): 7 (Level 7: above 70% growth inhibition rate); weed control effect, Digitaria sanguinalis (level) ([1]; 30 g/ha): 10; weed control effect, Echinochloa crus-galli (level) ([1]; 30 g/ha): 10; weed control effect, Rorippa indica (level) ([1]; 30 g/ha): 5 (Level 5: above 50% growth inhibition rate); weed control effect, Setaria viridis (level) ([1]; 30 g/ha): 9 (Level 9: above 90% growth inhibition rate); effect on crop, corn (level) ([2]; 30 g/ha): 0; effect on crop, rice (level) ([2]; 30 g/ha): 6 (Level 6: above 60% growth inhibition rate); effect on crop, wheat (level) ([2]; 30 g/ha): 0
11 | CCOCc1c(S(C)(=O)=O)ccc(C(=O)c2c(C)nn(C)c2OC(=O)c2cn(C)nc2C)c1Cl [Compound 27] |  |  |  |  |  |  |  |  |  | weed control effect, Abutilon theophrasti (level) ([1]; 30 g/ha): 7 (Level 7: above 70% growth inhibition rate); weed control effect, Bidens pilosa (level) ([1]; 30 g/ha): 7 (Level 7: above 70% growth inhibition rate); weed control effect, Digitaria sanguinalis (level) ([1]; 30 g/ha): 7 (Level 7: above 70% growth inhibition rate); weed control effect, Echinochloa crus-galli (level) ([1]; 30 g/ha): 9 (Level 9: above 90% growth inhibition rate); weed control effect, Rorippa indica (level) ([1]; 30 g/ha): 5 (Level 5: above 50% growth inhibition rate); weed control effect, Setaria viridis (level) ([1]; 30 g/ha): 6 (Level 6: above 60% growth inhibition rate); effect on crop, corn (level) ([2]; 30 g/ha): 0; effect on crop, rice (level) ([2]; 30 g/ha): 6 (Level 6: above 60% growth inhibition rate); effect on crop, wheat (level) ([2]; 30 g/ha): 0
